From patent US10168342B2, “Lipid probes and uses thereof” (THE SCRIPPS RESEARCH INSTITUTE, priority 2015, dated 2019)
Like-named read-outs stand apart in the source and are kept apart here.

Assays:
[1] = target: T1, AEA-DA lipid probe targets in Neuro2a cells (Mus musculus, UniProt O70252); conditions: for SILAC ratio, HMOX2 (P30519): Neuro2a cells, AEA-DA probe
T1 sequence (O70252 1-315): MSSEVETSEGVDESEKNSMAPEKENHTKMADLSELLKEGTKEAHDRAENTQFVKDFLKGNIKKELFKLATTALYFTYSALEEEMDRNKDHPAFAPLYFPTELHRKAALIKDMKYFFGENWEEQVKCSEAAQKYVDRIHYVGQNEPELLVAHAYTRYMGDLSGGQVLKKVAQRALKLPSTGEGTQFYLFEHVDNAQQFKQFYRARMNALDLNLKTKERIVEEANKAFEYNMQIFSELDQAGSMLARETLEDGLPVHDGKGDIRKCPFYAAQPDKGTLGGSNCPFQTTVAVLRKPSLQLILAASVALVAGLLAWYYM

[2] = target: T2, AEA-DA lipid probe targets in Neuro2a cells (Mus musculus, UniProt P21995)
T2 sequence (P21995 34-330): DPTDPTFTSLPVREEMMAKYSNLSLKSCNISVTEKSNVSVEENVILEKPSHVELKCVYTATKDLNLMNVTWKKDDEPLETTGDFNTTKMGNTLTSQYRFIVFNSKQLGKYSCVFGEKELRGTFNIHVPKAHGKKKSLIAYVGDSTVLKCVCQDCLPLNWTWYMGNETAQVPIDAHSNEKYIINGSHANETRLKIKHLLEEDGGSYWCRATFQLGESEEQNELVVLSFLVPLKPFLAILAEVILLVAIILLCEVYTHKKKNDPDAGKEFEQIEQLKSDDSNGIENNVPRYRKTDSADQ

[3] = target: AEA-DA lipid probe targets in Neuro2a cells (Mus musculus, UniProt Q60716)
[4] = target: T3, AEA-DA lipid probe targets in Neuro2a cells (Mus musculus, UniProt Q80UU9); conditions: for SILAC ratio, PGRMC2 (Q80UU9): Neuro2a cells, AEA-DA probe
T3 sequence (Q80UU9 1-217): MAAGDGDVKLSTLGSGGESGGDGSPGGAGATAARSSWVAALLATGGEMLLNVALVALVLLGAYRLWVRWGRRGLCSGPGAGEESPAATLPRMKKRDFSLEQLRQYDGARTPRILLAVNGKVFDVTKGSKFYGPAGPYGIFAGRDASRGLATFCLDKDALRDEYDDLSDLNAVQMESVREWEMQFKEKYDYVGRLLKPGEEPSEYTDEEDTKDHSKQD

[5] = target: T4, AEA-DA lipid probe targets in Neuro2a cells (Mus musculus, UniProt Q99JY4); conditions: for SILAC ratio, TRABD (Q99JY4): Neuro2a cells, AEA-DA probe
T4 sequence (Q99JY4 1-376): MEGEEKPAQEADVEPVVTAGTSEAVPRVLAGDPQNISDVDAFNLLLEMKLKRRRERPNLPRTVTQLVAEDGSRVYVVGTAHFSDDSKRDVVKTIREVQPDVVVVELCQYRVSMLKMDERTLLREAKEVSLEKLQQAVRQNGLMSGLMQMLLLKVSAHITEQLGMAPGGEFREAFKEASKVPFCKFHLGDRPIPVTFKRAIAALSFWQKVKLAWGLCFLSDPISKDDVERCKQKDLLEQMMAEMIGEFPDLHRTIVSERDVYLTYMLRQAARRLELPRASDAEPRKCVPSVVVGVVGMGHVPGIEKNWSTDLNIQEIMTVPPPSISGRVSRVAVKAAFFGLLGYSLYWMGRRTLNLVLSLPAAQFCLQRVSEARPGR

[6] = target: T5, AEA-DA lipid probe targets in Neuro2a cells (Mus musculus, UniProt Q99LR1)
T5 sequence (Q99LR1 1-398): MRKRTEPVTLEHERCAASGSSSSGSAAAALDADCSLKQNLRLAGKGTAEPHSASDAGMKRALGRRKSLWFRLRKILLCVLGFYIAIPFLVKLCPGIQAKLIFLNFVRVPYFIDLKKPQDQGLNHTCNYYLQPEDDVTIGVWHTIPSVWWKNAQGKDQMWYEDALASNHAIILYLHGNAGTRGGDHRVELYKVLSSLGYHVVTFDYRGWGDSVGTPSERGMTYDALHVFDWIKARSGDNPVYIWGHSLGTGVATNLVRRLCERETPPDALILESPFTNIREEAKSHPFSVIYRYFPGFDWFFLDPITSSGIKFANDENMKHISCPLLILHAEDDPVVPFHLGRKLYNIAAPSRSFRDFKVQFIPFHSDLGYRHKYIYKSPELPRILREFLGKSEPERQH

[7] = target: T6, AEA-DA lipid probe targets in Neuro2a cells (Mus musculus, UniProt Q9CQ85); conditions: for SILAC ratio, TIMM22 (Q9CQ85): Neuro2a cells, AEA-DA probe
T6 sequence (Q9CQ85 1-194): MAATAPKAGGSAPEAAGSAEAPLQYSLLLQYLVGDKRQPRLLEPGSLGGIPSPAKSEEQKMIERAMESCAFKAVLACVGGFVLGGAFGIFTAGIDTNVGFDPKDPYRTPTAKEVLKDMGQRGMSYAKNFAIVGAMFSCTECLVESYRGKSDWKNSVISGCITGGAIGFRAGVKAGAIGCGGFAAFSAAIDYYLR

[8] = target: AEA-DA lipid probe targets in Neuro2a cells (Mus musculus, UniProt Q9EQK7)
[9] = target: T7, AEA-DA lipid probe targets in Neuro2a cells (Mus musculus, UniProt Q9QZD8)
T7 sequence (Q9QZD8 1-287): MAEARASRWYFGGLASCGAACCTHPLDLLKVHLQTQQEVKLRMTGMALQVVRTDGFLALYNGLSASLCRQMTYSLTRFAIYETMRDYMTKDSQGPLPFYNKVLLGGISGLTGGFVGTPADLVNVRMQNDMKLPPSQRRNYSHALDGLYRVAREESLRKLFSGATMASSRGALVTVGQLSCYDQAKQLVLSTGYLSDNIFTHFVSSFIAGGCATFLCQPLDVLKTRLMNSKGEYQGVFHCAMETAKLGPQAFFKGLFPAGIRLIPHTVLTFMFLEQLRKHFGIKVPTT

[10] = target: AEA-DA lipid probe targets in Neuro2a cells (Mus musculus, UniProt Q9Z2G6)
[11] = target: AEA-DA lipid probe targets in Neuro2a cells (Mus musculus, UniProt Q8BK63)
AEA-DA lipid probe targets in Neuro2a cells (Mus musculus, UniProt Q8BK63), sequence (Q8BK63 whole entry): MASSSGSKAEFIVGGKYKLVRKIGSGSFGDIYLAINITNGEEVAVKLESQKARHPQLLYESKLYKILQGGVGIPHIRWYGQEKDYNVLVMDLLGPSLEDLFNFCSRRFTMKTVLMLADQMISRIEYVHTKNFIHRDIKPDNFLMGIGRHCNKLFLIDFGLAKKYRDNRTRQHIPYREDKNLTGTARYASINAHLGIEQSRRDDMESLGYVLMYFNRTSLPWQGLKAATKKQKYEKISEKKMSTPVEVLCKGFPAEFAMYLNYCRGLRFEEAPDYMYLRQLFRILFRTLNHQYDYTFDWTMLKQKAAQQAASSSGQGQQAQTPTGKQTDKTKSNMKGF

AEA-DA lipid probe targets in Neuro2a cells (Mus musculus, UniProt Q9Z2G6), sequence (Q9Z2G6 22-790): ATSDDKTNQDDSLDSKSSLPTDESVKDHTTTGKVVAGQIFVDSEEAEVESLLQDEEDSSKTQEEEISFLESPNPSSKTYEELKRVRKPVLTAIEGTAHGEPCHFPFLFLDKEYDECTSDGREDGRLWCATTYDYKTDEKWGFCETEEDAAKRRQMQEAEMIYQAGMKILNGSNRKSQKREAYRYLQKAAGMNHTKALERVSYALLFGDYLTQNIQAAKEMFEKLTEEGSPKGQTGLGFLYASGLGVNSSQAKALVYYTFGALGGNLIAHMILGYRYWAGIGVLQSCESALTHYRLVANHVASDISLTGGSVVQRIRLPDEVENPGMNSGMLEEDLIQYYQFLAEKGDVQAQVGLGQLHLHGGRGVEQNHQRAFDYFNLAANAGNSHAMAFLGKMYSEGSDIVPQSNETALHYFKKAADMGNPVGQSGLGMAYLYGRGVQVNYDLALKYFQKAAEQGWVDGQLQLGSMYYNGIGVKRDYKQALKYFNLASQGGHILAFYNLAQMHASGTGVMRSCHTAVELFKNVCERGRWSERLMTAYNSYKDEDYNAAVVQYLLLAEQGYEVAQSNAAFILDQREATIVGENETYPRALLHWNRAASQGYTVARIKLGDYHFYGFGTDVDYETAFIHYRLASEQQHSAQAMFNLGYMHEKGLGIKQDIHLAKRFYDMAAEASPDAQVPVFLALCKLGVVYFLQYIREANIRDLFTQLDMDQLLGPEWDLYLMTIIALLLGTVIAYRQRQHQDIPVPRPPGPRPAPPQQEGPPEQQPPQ
AEA-DA lipid probe targets in Neuro2a cells (Mus musculus, UniProt Q9EQK7), sequence (Q9EQK7 whole entry): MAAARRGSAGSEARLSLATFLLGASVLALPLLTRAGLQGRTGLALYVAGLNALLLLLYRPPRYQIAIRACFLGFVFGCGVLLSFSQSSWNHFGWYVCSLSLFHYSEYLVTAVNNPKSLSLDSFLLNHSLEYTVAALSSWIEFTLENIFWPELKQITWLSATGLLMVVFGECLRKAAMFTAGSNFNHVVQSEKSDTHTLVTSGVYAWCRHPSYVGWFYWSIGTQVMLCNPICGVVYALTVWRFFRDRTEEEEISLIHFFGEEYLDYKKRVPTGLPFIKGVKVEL
AEA-DA lipid probe targets in Neuro2a cells (Mus musculus, UniProt Q60716), sequence (Q60716 24-537): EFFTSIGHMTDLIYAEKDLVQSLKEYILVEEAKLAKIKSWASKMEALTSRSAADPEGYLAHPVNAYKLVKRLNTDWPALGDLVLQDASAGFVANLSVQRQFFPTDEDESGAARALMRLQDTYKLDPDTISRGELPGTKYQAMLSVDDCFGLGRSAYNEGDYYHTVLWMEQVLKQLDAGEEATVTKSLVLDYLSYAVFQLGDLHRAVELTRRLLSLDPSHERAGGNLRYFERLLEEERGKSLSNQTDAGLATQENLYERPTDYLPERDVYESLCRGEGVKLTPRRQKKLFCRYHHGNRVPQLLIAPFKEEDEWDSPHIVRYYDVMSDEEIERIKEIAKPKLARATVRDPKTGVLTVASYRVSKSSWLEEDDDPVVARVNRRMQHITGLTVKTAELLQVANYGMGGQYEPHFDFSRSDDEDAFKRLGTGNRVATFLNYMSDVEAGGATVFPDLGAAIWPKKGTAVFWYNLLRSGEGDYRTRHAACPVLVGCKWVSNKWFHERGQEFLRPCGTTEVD

## CCCCC/C=C\C/C=C\C/C=C\C/C=C\CCCC(=O)NCCO [AEA, anandamide, reference compound]
[1]; competitor 200 μM
  SILAC ratio, HMOX2 (P30519): 3.2
  SILAC ratio, Hmox2: 3.2
[2]; competitor 200 μM
  SILAC ratio, Emb: 1.8
[3]; competitor 200 μM
  SILAC ratio P4ha2: 1.0
[4]; competitor 200 μM
  SILAC ratio, PGRMC2 (Q80UU9): 2.0
  SILAC ratio, Pgrmc2: 2.0
[5]; competitor 200 μM
  SILAC ratio, TRABD (Q99JY4): 1.0
  SILAC ratio, Trabd: 1.0
[6]; competitor 200 μM
  SILAC ratio, Abhd12: 1.8
[7]; competitor 200 μM
  SILAC ratio, TIMM22 (Q9CQ85): 1.3
  SILAC ratio, Timm22: 1.3
[8]; competitor 200 μM
  SILAC ratio Icmt: 1.5
[9]; competitor 200 μM
  SILAC ratio Slc25a10: 1.2
[10]; competitor 200 μM
  SILAC ratio, Sel1l: 1.6

## O=C(/C=C/c1cccnc1)NCCCCC1CCN(C(=O)c2ccccc2)CC1 [FK-866, reference compound]
[1]; competitor 25 μM
  SILAC ratio, HMOX2 (P30519): 1.0
  SILAC ratio, Hmox2: 1.0
[2]; competitor 25 μM
  SILAC ratio, Emb: 1.3
[3]; competitor 25 μM
  SILAC ratio P4ha2: 1.1
[4]; competitor 25 μM
  SILAC ratio, PGRMC2 (Q80UU9): 1.2
  SILAC ratio, Pgrmc2: 1.2
[11]; competitor 25 μM
  SILAC ratio Csnk1a1: 1.5
[5]; competitor 25 μM
  SILAC ratio, TRABD (Q99JY4): 1.2
  SILAC ratio, Trabd: 1.2
[6]; competitor 25 μM
  SILAC ratio, Abhd12: 1.0
[7]; competitor 25 μM
  SILAC ratio, TIMM22 (Q9CQ85): 1.2
  SILAC ratio, Timm22: 1.2
[8]; competitor 25 μM
  SILAC ratio Icmt: 1.3
[9]; competitor 25 μM
  SILAC ratio Slc25a10: 1.2
[10]; competitor 25 μM
  SILAC ratio, Sel1l: 1.4

## CN1CCN(C(=O)c2c(-c3ccccc3)c3cc([N+](=O)[O-])ccc3n2C)CC1 [KML110, (1-Methyl-5-nitro-3-phenyl-1H-indol-2-yl)(4-methylpiperazin-1-yl)methanone]
[1]; competitor 25 μM
  SILAC ratio, Hmox2: 1.5
[2]; competitor 25 μM
  SILAC ratio, Emb: 1.8
[3]; competitor 25 μM
  SILAC ratio P4ha2: 1.3
[4]; competitor 25 μM
  SILAC ratio, Pgrmc2: 1.6
[11]; competitor 25 μM
  SILAC ratio Csnk1a1: 1.5
[5]; competitor 25 μM
  SILAC ratio, Trabd: 1.5
[6]; competitor 25 μM
  SILAC ratio, Abhd12: 1.2
[7]; competitor 25 μM
  SILAC ratio, Timm22: 1.4
[8]; competitor 25 μM
  SILAC ratio Icmt: 1.0
[9]; competitor 25 μM
  SILAC ratio Slc25a10: 1.2
[10]; competitor 25 μM
  SILAC ratio, Sel1l: 1.5

## CN1CCN(C(=O)c2[nH]c3ccc([N+](=O)[O-])cc3c2-c2ccccc2)CC1 [MJN228, (4-Methylpiperazin-1-yl)(5-nitro-3-phenyl-1H-indol-2-yl)methanone]
[1]; competitor 25 μM
  SILAC ratio, HMOX2 (P30519): 1.4
  SILAC ratio, Hmox2: 1.4
[1]; competitor 10 μM
  SILAC ratio, Hmox2: 1.1
[1]; competitor 50 μM
  SILAC ratio, Hmox2: 1.3
[1]; competitor 100 μM
  SILAC ratio, Hmox2: 1.7
[2]; competitor 10 μM
  SILAC ratio, Emb: 1.3
[2]; competitor 25 μM
  SILAC ratio, Emb: 1.7
[2]; competitor 50 μM
  SILAC ratio, Emb: 1.4
[2]; competitor 100 μM
  SILAC ratio, Emb: 2.2
[3]; competitor 10 μM
  SILAC ratio P4ha2: 1.2
[3]; competitor 25 μM
  SILAC ratio P4ha2: 1.3
[3]; competitor 50 μM
  SILAC ratio P4ha2: 1.0
[3]; competitor 100 μM
  SILAC ratio P4ha2: 1.0
[4]; competitor 25 μM
  SILAC ratio, PGRMC2 (Q80UU9): 1.5
  SILAC ratio, Pgrmc2: 1.5
[4]; competitor 10 μM
  SILAC ratio, Pgrmc2: 1.2
[4]; competitor 50 μM
  SILAC ratio, Pgrmc2: 1.7
[4]; competitor 100 μM
  SILAC ratio, Pgrmc2: 2.0
[11]; competitor 25 μM
  SILAC ratio Csnk1a1: 1.4
[11]; competitor 100 μM
  SILAC ratio Csnk1a1: 1.3
[5]; competitor 25 μM
  SILAC ratio, TRABD (Q99JY4): 1.3
  SILAC ratio, Trabd: 1.3
[5]; competitor 10 μM
  SILAC ratio, Trabd: 1.1
[5]; competitor 50 μM
  SILAC ratio, Trabd: 1.4
[5]; competitor 100 μM
  SILAC ratio, Trabd: 1.7
[6]; competitor 10 μM
  SILAC ratio, Abhd12: 1.2
[6]; competitor 25 μM
  SILAC ratio, Abhd12: 1.2
[6]; competitor 50 μM
  SILAC ratio, Abhd12: 1.2
[6]; competitor 100 μM
  SILAC ratio, Abhd12: 1.4
[7]; competitor 25 μM
  SILAC ratio, TIMM22 (Q9CQ85): 1.3
  SILAC ratio, Timm22: 1.3
[7]; competitor 10 μM
  SILAC ratio, Timm22: 1.0
[7]; competitor 50 μM
  SILAC ratio, Timm22: 1.0
[7]; competitor 100 μM
  SILAC ratio, Timm22: 1.8
[8]; competitor 10 μM
  SILAC ratio Icmt: 0.9
[8]; competitor 25 μM
  SILAC ratio Icmt: 0.9
[8]; competitor 50 μM
  SILAC ratio Icmt: 0.6
[8]; competitor 100 μM
  SILAC ratio Icmt: 0.5
[9]; competitor 10 μM
  SILAC ratio Slc25a10: 1.2
[9]; competitor 25 μM
  SILAC ratio Slc25a10: 1.2
[9]; competitor 50 μM
  SILAC ratio Slc25a10: 1.3
[9]; competitor 100 μM
  SILAC ratio Slc25a10: 1.0
[10]; competitor 10 μM
  SILAC ratio, Sel1l: 1.2
[10]; competitor 25 μM
  SILAC ratio, Sel1l: 1.5
[10]; competitor 50 μM
  SILAC ratio, Sel1l: 1.5
[10]; competitor 100 μM
  SILAC ratio, Sel1l: 1.9

## C=CCN(C)CCCCCCOc1ccc(C(=O)c2ccc(Br)cc2)c(F)c1 [Ro 48-8071, reference compound]
[1]; competitor 25 μM
  SILAC ratio, HMOX2 (P30519): 1.3
  SILAC ratio, Hmox2: 1.3
[2]; competitor 25 μM
  SILAC ratio, Emb: 1.1
[3]; competitor 25 μM
  SILAC ratio P4ha2: 1.0
[4]; competitor 25 μM
  SILAC ratio, PGRMC2 (Q80UU9): 1.3
  SILAC ratio, Pgrmc2: 1.3
[11]; competitor 25 μM
  SILAC ratio Csnk1a1: 0.9
[5]; competitor 25 μM
  SILAC ratio, TRABD (Q99JY4): 1.0
  SILAC ratio, Trabd: 1.0
[6]; competitor 25 μM
  SILAC ratio, Abhd12: 1.0
[7]; competitor 25 μM
  SILAC ratio, TIMM22 (Q9CQ85): 1.1
  SILAC ratio, Timm22: 1.1
[8]; competitor 25 μM
  SILAC ratio Icmt: 1.6
[9]; competitor 25 μM
  SILAC ratio Slc25a10: 0.9
[10]; competitor 25 μM
  SILAC ratio, Sel1l: 1.2
